Measured values as given in US6897213B1, “Heterocycles as cholecystokinin (CCK) ligands” (Warner-Lambert Company, priority 1995, dated 2005).

How the values were obtained:
CCK-B receptor = biological target: T1, CCK-B receptor (Mus musculus, UniProt P56481); test: CCK-B receptor binding affinity (tritiated-pentagastrin displacement, mouse cerebral cortical membranes); settings: 2 nM tritiated-pentagastrin, Ki by Cheng-Prusoff
T1 construct: from tissue; host or cells: mouse (male CFLP) cerebral cortex membranes
T1 sequence (P56481 1-453): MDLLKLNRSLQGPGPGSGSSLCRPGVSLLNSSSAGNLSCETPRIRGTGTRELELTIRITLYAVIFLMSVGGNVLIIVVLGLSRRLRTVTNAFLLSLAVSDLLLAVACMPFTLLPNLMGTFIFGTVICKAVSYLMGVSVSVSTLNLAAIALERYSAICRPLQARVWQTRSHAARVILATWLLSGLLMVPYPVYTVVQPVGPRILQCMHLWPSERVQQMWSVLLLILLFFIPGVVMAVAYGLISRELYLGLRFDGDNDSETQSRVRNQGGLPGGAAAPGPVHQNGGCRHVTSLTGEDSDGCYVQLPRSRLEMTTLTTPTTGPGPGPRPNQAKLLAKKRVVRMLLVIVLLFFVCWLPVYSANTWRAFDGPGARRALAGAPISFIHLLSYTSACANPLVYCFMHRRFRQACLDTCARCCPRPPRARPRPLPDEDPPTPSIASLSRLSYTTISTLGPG
Protocol: The biological activity of compounds of the present invention may be evaluated by employing an initial screening test which rapidly and accurately measures the binding of the tested compound to known CCK receptor sites. […] (See Hays et al, Neuropeptides 1:53-62, 1980; and Satuer et al, Science 208:1155-1156, 1980).
In this screening test, the cerebral cortices taken from male CFLP mice weighing between 30-40 g were dissected on ice, weighed, and homogenized in 10 volumes of 50 mM Tris-HCl buffer (pH 7.4 at 0-4° C.). The resulting suspension was centrifuged, the supernate was discarded, and the pellet was washed by resuspension in Tris-HCl buffer followed by recentrifugation. The final pellet was resuspended in 20 volumes of […] buffer (pH 7.2 at 23° C.) containing 130 mM NaCl, […], […], 1 […].
In saturation studies, cerebral cortical membranes were incubated at 23° C. for 120 minutes in a final volume of 500 μL of Hepes incubation buffer (pH 7.2) together with 0.2-20 nM tritiated—pentagastrin (Amersham International, England).
In the displacement experiments, membranes were incubated with a single concentration (2 nM) of ligand, together with increasing concentrations (10^11 to 10^14 M) of competitive test compound. In each case, the nonspecific binding was defined as that persisting in the presence of the unlabeled octapeptide CCK26-33 (10^−6M).
Following incubation, radioactivity bound to membranes was separated from that free in solution by rapid filtration through Whatman GF/B filters and washed three times with 4 mL of ice cold Tris-HCl buffer. Filters from samples incubated with tritiated-pentagastrin were placed in polyethylene vials with 4 mL of scintillation cocktail, and the radioactivity was estimated by liquid scintillation spectrometry (efficiency 47-52%).
The specific binding to CCK receptor sites was defined as the total bound tritiated-pentagastrin minus the amount of tritiated-pentagastrin bound in the presence of 10^−6 octapeptide, CCK26-33.
Saturation curves for specific tritiated-pentagastrin binding to mouse cortical membranes were analyzed by the methods of Scatchard (Ann. New York Acad. Sci. 51:660-672, 1949, and Hill (J. Physiol. 40:IV-VIII, 1910), to provide estimates for the maximum number of binding sites (Bmax) and the equilibrium dissociation constant (Ka).
In displacement experiments, inhibition curves were analyzed by either logit-log plots or the iterative curve fitting computer program ALLFIT (DeLean, Munson and Redbard, 1978) to provide estimates of the IC50 and nH (apparent Hill coefficient values).
The inhibition constant (Ki) of the test compound was then calculated according to the Cheng-Prusoff equation: [formula] where [L] is the concentration of radiolabel and Ka is the equilibrium dissociation constant.
The Ki values for several representative compounds of the present invention are present in Table I.
(§1) The following table represents the CCK-A and CCK-B receptor binding affinities of the compounds.
(§2) The testing procedures are disclosed in Hays et al, Neuropeptides 1:53-62, 1980; and Satuer et al, Science 208:1155-1156, 1980.

CCK-A receptor = biological target: T2, CCK-A receptor (Homo sapiens, UniProt P32238); test: CCK-A receptor binding affinity
T2 sequence (P32238 1-428): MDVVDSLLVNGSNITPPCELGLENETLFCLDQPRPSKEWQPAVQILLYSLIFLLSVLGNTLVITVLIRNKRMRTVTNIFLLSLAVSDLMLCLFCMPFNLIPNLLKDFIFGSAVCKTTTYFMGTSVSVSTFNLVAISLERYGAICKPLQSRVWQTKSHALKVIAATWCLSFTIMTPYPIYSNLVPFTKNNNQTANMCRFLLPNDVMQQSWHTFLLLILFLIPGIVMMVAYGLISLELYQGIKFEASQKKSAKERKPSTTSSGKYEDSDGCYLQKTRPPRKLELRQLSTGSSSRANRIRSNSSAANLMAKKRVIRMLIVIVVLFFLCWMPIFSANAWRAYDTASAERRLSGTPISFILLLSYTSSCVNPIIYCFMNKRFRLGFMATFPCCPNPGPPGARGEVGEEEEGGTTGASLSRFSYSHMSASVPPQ
Excerpt: as §1, §2

## CC(C)Oc1cccc(-n2c(NNC(=O)Nc3cccc(C#N)c3)nc3ccccc3c2=O)c1 [No. 14, Hydrazinecarboxamide, N-(3-cyanohenyl)-2-[3,4-dihydro-3-[3-(1-methylethoxoy)phenyl]-4-oxo-2-quinazolinyl]-]
CCK-B receptor
  Ki: 1.2 nM
CCK-A receptor
  Ki: 5.39 µM

## CC(C)Oc1cccc(-n2c(NNC(=O)NC3CCCCC3)nc3ccccc3c2=O)c1 [No. 15, Hydrazinecarboxamide, N-(cyclohexyl)-2-[3,4-dihydro-3-[3-(1-methylethoxy)phenyl]-4-oxo-2-quinazolinyl]-]
CCK-B receptor
  Ki: 105 nM
CCK-A receptor
  Ki: 17.7 µM

## CN(C)c1cccc(-n2c(NNC(=O)Nc3cccc(C#N)c3)nc3ccccc3c2=O)c1 [No. 40]
CCK-B receptor
  Ki: 18.1 nM
CCK-A receptor
  Ki: 5.74 µM

## CC(C)Oc1cccc(-n2c(NNC(=O)Nc3ccc(Cl)cc3)nc3ccccc3c2=O)c1 [No. 13, Hydrazinecarboxamide, N-(4-Chlorophenyl)-2-[3,4-dihydro-3-[3-(1-methylethoxy)phenyl]-4-oxo-2-quinazolinyl]]
CCK-B receptor
  Ki: 12.9 nM
CCK-A receptor
  Ki: 3.64 µM

## CCOC(=O)c1cccc(NC(=O)NNc2nc3ccccc3c(=O)n2-c2ccc(Cl)c(Cl)c2)c1 [No. 21]
CCK-B receptor
  Ki: 53.4 nM
CCK-A receptor
  Ki: 1.76 µM

## CC(C)Oc1cccc(-n2c(NNC(=O)Nc3ccc(Br)cc3)nc3ccccc3c2=O)c1 [No. 1, Hydrazinecarboxamide, N-(4-bromophenyl)-2-[3,4-dihydro-3-[3-(1-methylethoxy)-phenyl]-4-oxo-2-quinazolinyl]-]
CCK-B receptor
  Ki: 16 nM
CCK-A receptor
  Ki: 3.43 µM

## CC(C)Oc1cccc(-n2c(NNC(=O)Nc3cccc(C(=O)OC(C)(C)C)c3)nc3ccccc3c2=O)c1 [No. 7]
CCK-B receptor
  Ki: 2 nM
CCK-A receptor
  Ki: 3.58 µM
